Data set [1] addresses T1, ATP-dependent translocase ABCB1 (Homo sapiens, UniProt P08183). As to the kind of experiment: TP_TRANSPORTER: uptake in membrane vesicles prepared from K562/ADM cells. The class given is functional, cell membranes, Membrane vesicle. The following applies: k562/adr.
Data set [2] addresses T1, ATP-dependent translocase ABCB1. Nature of the data set: TP_TRANSPORTER: uptake in membrane vesicles prepared from human MDR1 transfected KB3-1 cells. The class given is functional, cell membranes, Membrane vesicle. Particulars: kb 3-1.

T1 sequence (P08183 whole entry): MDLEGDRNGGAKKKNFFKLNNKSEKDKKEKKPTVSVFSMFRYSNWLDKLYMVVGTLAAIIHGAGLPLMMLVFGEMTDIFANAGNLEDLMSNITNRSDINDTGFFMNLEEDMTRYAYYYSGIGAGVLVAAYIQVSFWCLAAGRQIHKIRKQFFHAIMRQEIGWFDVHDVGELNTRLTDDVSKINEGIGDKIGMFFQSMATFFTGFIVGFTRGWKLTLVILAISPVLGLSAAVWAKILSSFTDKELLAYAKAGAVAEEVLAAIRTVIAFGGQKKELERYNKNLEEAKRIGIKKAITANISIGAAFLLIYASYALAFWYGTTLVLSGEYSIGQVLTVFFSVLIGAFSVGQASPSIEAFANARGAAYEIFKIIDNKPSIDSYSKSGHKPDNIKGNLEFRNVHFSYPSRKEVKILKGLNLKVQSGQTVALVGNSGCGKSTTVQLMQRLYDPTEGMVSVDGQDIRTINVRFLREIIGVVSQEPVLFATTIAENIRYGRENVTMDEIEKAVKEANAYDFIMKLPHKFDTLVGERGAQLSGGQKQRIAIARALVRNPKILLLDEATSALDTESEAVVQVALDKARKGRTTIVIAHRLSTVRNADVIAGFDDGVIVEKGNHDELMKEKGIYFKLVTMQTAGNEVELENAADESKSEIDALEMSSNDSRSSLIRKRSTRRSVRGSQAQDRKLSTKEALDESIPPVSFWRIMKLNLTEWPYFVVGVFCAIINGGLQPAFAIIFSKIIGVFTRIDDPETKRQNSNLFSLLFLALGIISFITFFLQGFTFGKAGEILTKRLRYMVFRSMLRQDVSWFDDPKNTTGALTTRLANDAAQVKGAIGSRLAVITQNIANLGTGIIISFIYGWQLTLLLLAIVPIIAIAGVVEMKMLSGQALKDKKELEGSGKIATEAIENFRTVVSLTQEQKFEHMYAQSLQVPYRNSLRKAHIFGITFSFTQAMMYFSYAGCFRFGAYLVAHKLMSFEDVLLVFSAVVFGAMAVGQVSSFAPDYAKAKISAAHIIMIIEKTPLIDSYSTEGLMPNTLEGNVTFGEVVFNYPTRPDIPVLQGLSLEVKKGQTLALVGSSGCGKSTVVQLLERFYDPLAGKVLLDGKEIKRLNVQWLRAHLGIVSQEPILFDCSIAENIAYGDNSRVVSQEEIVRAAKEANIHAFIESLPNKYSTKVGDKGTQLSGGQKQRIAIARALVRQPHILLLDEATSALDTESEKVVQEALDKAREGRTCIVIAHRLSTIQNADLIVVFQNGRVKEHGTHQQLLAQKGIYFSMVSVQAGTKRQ

On to `C[C@H](N)C(=O)NCC(=O)N[C@H]1CSSC[C@@H](C(=O)O)NC(=O)[C@H](CO)NC(=O)[C@H]([C@@H](C)O)NC(=O)[C@H](Cc2ccccc2)NC(=O)[C@H]([C@@H](C)O)NC(=O)[C@H](CCCCN)NC(=O)[C@H](Cc2c[nH]c3ccccc23)NC(=O)[C@H](Cc2ccccc2)NC(=O)[C@H](Cc2ccccc2)NC(=O)[C@H](CC(N)=O)NC(=O)[C@H](CCCCN)NC1=O` [SOMATOSTATIN], for which the Activity entry in data set [1] and in data set [2] was “substrate [+]” each time.
`CSCC[C@H](NC(=O)[C@H](CC(C)C)NC(=O)CNC(=O)[C@H](Cc1ccccc1)NC(=O)[C@H](Cc1ccccc1)NC(=O)[C@H](CCC(N)=O)NC(=O)[C@H](CCC(N)=O)NC(=O)[C@@H]1CCCN1C(=O)[C@H](CCCCN)NC(=O)[C@@H]1CCCN1C(=O)[C@@H](N)CCCN=C(N)N)C(N)=O` [SUBSTANCE P]: the Activity result in data set [1] and in data set [2] was “substrate [+]” in each case.

The record behind these values is ChEMBL document CHEMBL2074003, “Transport of somatostatin and substance P by human P-glycoprotein” (FEBS Lett, 2004).
